Experimental data published in the supplement of paper PMC10307832.

Assays:
Assay in all cases: relative viability (nuclei count vs DMSO), 5 days (fraction); higher = more cells survive
[1] = compound: C1=CC2=NC=CN=C2C=C1/C=C/3\C(=O)NC(=O)S3 + CC(=O)c1c(C)c2cnc(Nc3ccc(N4CCNCC4)cn3)nc2n(C2CCCC2)c1=O [Palbociclib] (partner 0.5 µM)
How it was run: (§1)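 Relative viability divides the nuclei count in treated wells by that in vehicle wells. Lung cancer cell lines were seeded in 1536-well plates, dosed by pin tool the next day, and fixed and stained after 5 days in one step with final 0.05% Triton X-100, 1% formaldehyde and 1 ug/ml Hoechst. Dosing was a single drug or a fixed anchor-drug dose plus five library-drug doses (not always all listed) in √10 steps, and values are medians of duplicate plates imaged at 4×.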

BGJ398 + Palbociclib = compound: CCN1CCN(c2ccc(Nc3cc(N(C)C(=O)Nc4c(Cl)c(OC)cc(OC)c4Cl)ncn3)cc2)CC1 [BGJ398] + CC(=O)c1c(C)c2cnc(Nc3ccc(N4CCNCC4)cn3)nc2n(C2CCCC2)c1=O [Palbociclib] (partner 0.5 µM)
How it was run: as §1

[2] = compound: C1=CC2=NC=CN=C2C=C1/C=C/3\C(=O)NC(=O)S3 + CCNC(=O)c1noc(-c2cc(C(C)C)c(O)cc2O)c1-c1ccc(CN2CCOCC2)cc1 [Luminespib] (partner 0.01 µM)
How it was run: as §1

[3] = compound: C1=CC2=NC=CN=C2C=C1/C=C/3\C(=O)NC(=O)S3 + NC(=O)Nc1cc(-c2cccc(F)c2)sc1C(=O)N[C@H]1CCCNC1 [AZD7762] (partner 0.2 µM)
How it was run: as §1

Row | Cell Line | relative viability ([1]; first compound 0.02 µM) | relative viability ([1]; first compound 0.06325 µM) | relative viability ([1]; first compound 0.2 µM) | relative viability ([1]; first compound 0.6325 µM) | relative viability ([1]; first compound 2 µM) | relative viability (BGJ398 + Palbociclib; first compound 0.01 µM) | relative viability (BGJ398 + Palbociclib; first compound 0.03162 µM) | relative viability (BGJ398 + Palbociclib; first compound 0.1 µM) | relative viability (BGJ398 + Palbociclib; first compound 0.3162 µM) | relative viability (BGJ398 + Palbociclib; first compound 1 µM) | relative viability ([2]; first compound 0.02 µM) | relative viability ([2]; first compound 0.06325 µM) | relative viability ([2]; first compound 0.2 µM) | relative viability ([2]; first compound 0.6325 µM) | relative viability ([2]; first compound 2 µM) | relative viability ([3]; first compound 0.02 µM) | relative viability ([3]; first compound 0.06325 µM) | relative viability ([3]; first compound 0.2 µM) | relative viability ([3]; first compound 0.6325 µM) | relative viability ([3]; first compound 2 µM)
1 | NCI-H322M | 0.553 | 0.491 | 0.477 | 0.454 | 0.455 | 0.493 | 0.43 | 0.472 | 0.491 | 0.521 | 0.95 | 0.76 | 0.707 | 0.8 | 0.522 | 0.559 | 0.598 | 0.607 | 0.51 | 0.498
2 | NCI-H522 | 1.06 | 1.08 | 0.876 | 0.816 | 0.749 | 1.13 | 1.07 | 1.06 | 0.932 | 0.859 | 1.06 | 1.09 | 1.18 | 1.05 | 0.956 | 0.811 | 0.919 | 1.07 | 0.772 | 0.86
3 | NCI-H647 | 0.314 | 0.488 | 0.41 | 0.363 | 0.342 | 0.388 | 0.375 | 0.517 | 0.395 | 0.413 | 0.173 | 0.196 | 0.168 | 0.127 | 0.102 | 0.714 | 0.403 | 0.572 | 0.425 | 0.382
4 | NCI-H2170 | 0.35 | 0.448 | 0.405 | 0.374 | 0.374 | 0.426 | 0.389 | 0.416 | 0.427 | 0.39 | 0.757 | 0.942 | 0.79 | 0.525 | 0.717 | 0.849 | 0.866 | 0.888 | 0.766 | 0.874
5 | NCI-H2085 | 0.494 | 0.436 | 0.485 | 0.448 | 0.46 | 0.494 | 0.476 | 0.472 | 0.447 | 0.521 | 0.489 | 0.44 | 0.435 | 0.452 | 0.428 | 0.972 | 0.845 | 0.958 | 0.984 | 0.918
6 | NCI-H727 | 0.549 | 0.683 | 0.637 | 0.649 | 0.556 | 0.806 | 0.651 | 0.647 | 0.686 | 0.691 | 0.427 | 0.496 | 0.403 | 0.444 | 0.265 | 0.597 | 0.63 | 0.737 | 0.678 | 0.337
7 | NCI-H441 | 0.195 | 0.271 | 0.24 | 0.193 | 0.112 | – | 0.186 | 0.213 | 0.25 | 0.183 | 0.294 | 0.334 | 0.332 | 0.364 | 0.255 | 1.07 | 1.18 | 1.3 | 1 | 1.1
8 | LOU-NH91 | 0.501 | 0.538 | 0.556 | 0.552 | 0.548 | 0.555 | 0.544 | 0.553 | 0.559 | 0.536 | 0.363 | 0.344 | 0.334 | 0.346 | 0.314 | 0.74 | 0.755 | 0.797 | 0.733 | 0.55
9 | NCI-H3122 | 0.204 | 0.213 | 0.173 | 0.194 | 0.186 | 0.174 | 0.166 | 0.175 | 0.176 | 0.227 | 0.0669 | 0.0861 | 0.11 | 0.0884 | 0.106 | 0.989 | 1 | 0.984 | 0.991 | 0.913
10 | NCI-H460 | 0.168 | 0.107 | 0.176 | 0.2 | 0.122 | 0.209 | 0.169 | 0.118 | 0.206 | 0.0801 | 0.0317 | 0.0415 | 0.0283 | 0.0303 | 0.0362 | 0.581 | 0.438 | 0.576 | 0.621 | 0.456
11 | NCI-H650 | 0.346 | 0.336 | 0.36 | 0.344 | 0.275 | 0.313 | 0.375 | 0.321 | 0.379 | 0.315 | 0.719 | 0.872 | 0.755 | 0.709 | 0.627 | 0.866 | 1.06 | 1.17 | 0.959 | 0.69
12 | NCI-H1793 | 0.289 | 0.296 | 0.282 | 0.336 | 0.288 | 0.321 | 0.271 | 0.286 | 0.237 | 0.309 | 0.201 | 0.188 | 0.169 | 0.169 | 0.174 | 0.573 | 0.271 | 0.612 | 0.309 | 0.347
13 | NCI-H1734 | 0.328 | – | 0.333 | 0.352 | 0.318 | 0.329 | 0.352 | 0.355 | 0.359 | 0.355 | 0.245 | 0.217 | 0.182 | 0.194 | 0.257 | 0.579 | – | 0.586 | 0.469 | 0.444
14 | LXF-289 | 0.529 | 0.632 | 0.574 | 0.552 | 0.637 | 0.584 | 0.549 | 0.564 | 0.531 | 0.552 | 0.638 | 0.738 | 0.693 | 0.642 | 0.561 | 1.06 | 0.975 | 1.1 | 0.986 | 1.18
15 | H3255 | 0.328 | 0.342 | 0.314 | 0.318 | 0.307 | 0.281 | 0.321 | 0.314 | 0.315 | 0.314 | 0.879 | 0.793 | 0.909 | 0.857 | 0.809 | 0.716 | 0.819 | 0.903 | 0.901 | 0.825
16 | 201T | 0.341 | 0.347 | 0.349 | 0.358 | 0.343 | 0.387 | 0.358 | 0.356 | 0.349 | 0.268 | 1.04 | 1.04 | 1.04 | 1.02 | 0.986 | 0.651 | 0.531 | 0.625 | 0.609 | 0.576
